Results as given in ChEMBL document CHEMBL1154277, “Discovery of N-substituted pyridinones as potent and selective inhibitors of p38 kinase” (Bioorg Med Chem Lett, 2009).

Legend:
[1] = target: AMP-activated protein kinase, AMPK (Homo sapiens) (UniProt P54646+O43741+P54619+Q9UGJ0+Q9Y478+Q13131+Q9UGI9); experiment: Inhibition of AMPK alpha-2/beta-1/gamma-1 at 10 uM; format: protein-complex assay
[2] = target: Serine/threonine-protein kinase BRSK1 (Homo sapiens) (UniProt Q8TDC3); experiment: Inhibition of BRSK1 at 10 uM
[3] = target: AMP-activated protein kinase (AMPK) alpha-1/beta-1/gamma-1 (Homo sapiens) (UniProt P54619+Q9Y478+Q13131); experiment: Inhibition of AMPK alpha-1/beta-1/gamma-1 at 10 uM; format: protein-complex assay
[4] = target: Serine/threonine-protein kinase D1 (Homo sapiens) (UniProt Q15139); experiment: Inhibition of PKCmu at 10 uM
[5] = target: Serine/threonine-protein kinase PLK3 (Homo sapiens) (UniProt Q9H4B4); experiment: Inhibition of PLK3 at 10 uM
[6] = target: Serine/threonine-protein kinase Nek4 (Homo sapiens) (UniProt P51957); experiment: Inhibition of NEK4 at 10 uM
[7] = system: Mast/stem cell growth factor receptor Kit (Homo sapiens), P10721 [T670I]; experiment: Inhibition of KIT T670I (mutant) at 10 uM
[8] = target: Aurora kinase B (Homo sapiens) (UniProt Q96GD4); experiment: Inhibition of Aurora B at 10 uM
[9] = target: Tyrosine-protein kinase ITK/TSK (Homo sapiens) (UniProt Q08881); experiment: Inhibition of ITK at 10 uM
[10] = target: Leucine-rich repeat serine/threonine-protein kinase 2 (Homo sapiens) (UniProt Q5S007); experiment: Inhibition of LRRK2 at 10 uM
[11] = target: ALK tyrosine kinase receptor (Homo sapiens) (UniProt Q9UM73); experiment: Inhibition of ALK at 10 uM
[12] = target: Ephrin type-A receptor 2 (Homo sapiens) (UniProt P29317); experiment: Inhibition of EPHA2 at 10 uM
[13] = target: Non-receptor tyrosine-protein kinase TYK2 (Homo sapiens) (UniProt P29597); experiment: Inhibition of TYK2 at 10 uM
[14] = target: Death-associated protein kinase 1 (Homo sapiens) (UniProt P53355); experiment: Inhibition of DAPK1 at 10 uM
[15] = target: Receptor tyrosine-protein kinase erbB-2 (Homo sapiens) (UniProt P04626); experiment: Inhibition of ERBB2 at 10 uM
[16] = target: Eukaryotic elongation factor 2 kinase (Homo sapiens) (UniProt O00418); experiment: Inhibition of EEF2K at 10 uM
[17] = target: Serine/threonine-protein kinase MARK2 (Homo sapiens) (UniProt Q7KZI7); experiment: Inhibition of MARK2 at 10 uM
[18] = target: Aurora kinase C (Homo sapiens) (UniProt Q9UQB9); experiment: Inhibition of Aurora C at 10 uM
[19] = target: Tyrosine-protein kinase JAK2 (Homo sapiens) (UniProt O60674); experiment: Inhibition of JAK2 at 10 uM
[20] = target: Vascular endothelial growth factor receptor 2 (Homo sapiens) (UniProt P35968); experiment: Inhibition of KDR at 10 uM
[21] = target: Serine/threonine-protein kinase Nek6 (Homo sapiens) (UniProt Q9HC98); experiment: Inhibition of NEK6 at 10 uM
[22] = target: Rhodopsin kinase GRK7 (Homo sapiens) (UniProt Q8WTQ7); experiment: Inhibition of GRK7 at 10 uM
[23] = target: Tyrosine-protein kinase Mer (Homo sapiens) (UniProt Q12866); experiment: Inhibition of MERTK at 10 uM
[24] = target: Calcium/calmodulin-dependent protein kinase type II subunit delta (Homo sapiens) (UniProt Q13557); experiment: Inhibition of CAMK2delta at 10 uM
[25] = target: Casein kinase I isoform gamma-3 (Homo sapiens) (UniProt Q9Y6M4); experiment: Inhibition of CK1gamma3 at 10 uM
[26] = target: Serine/threonine-protein kinase N1 (Homo sapiens) (UniProt Q16512); experiment: Inhibition of PRK1 at 10 uM
[27] = target: Tyrosine-protein kinase Fgr (Homo sapiens) (UniProt P09769); experiment: Inhibition of FGR at 10 uM
[28] = target: Ephrin type-B receptor 2 (Homo sapiens) (UniProt P29323); experiment: Inhibition of EPHB2 at 10 uM
[29] = target: Phosphorylase b kinase gamma catalytic chain, skeletal muscle/heart isoform (Homo sapiens) (UniProt Q16816); experiment: Inhibition of PHKgamma1 at 10 uM
[30] = target: Serine/threonine-protein kinase PLK1 (Homo sapiens) (UniProt P53350); experiment: Inhibition of PLK1 at 10 uM
[31] = target: Casein kinase I isoform delta (Homo sapiens) (UniProt P48730); experiment: Inhibition of CSNK1D at 10 uM
[32] = target: CDK9/cyclin T1 (Homo sapiens) (UniProt O60563+P50750); experiment: Inhibition of CDK9/cyclin T1 at 10 uM; format: protein-complex assay
[33] = target: Serine/threonine-protein kinase PAK 1 (Homo sapiens) (UniProt Q13153); experiment: Inhibition of PAK1 at 10 uM
[34] = system: Tyrosine-protein kinase ABL1 (Homo sapiens), P00519 [Y253F]; experiment: Inhibition of ABL1 Y253F (mutant) at 10 uM
[35] = target: Myosin light chain kinase 2, skeletal/cardiac muscle (Homo sapiens) (UniProt Q9H1R3); experiment: Inhibition of MYLK2 at 10 uM
[36] = target: Protein kinase C zeta type (Homo sapiens) (UniProt Q05513); experiment: Inhibition of PKCzeta at 10 uM
[37] = target: Ephrin type-B receptor 3 (Homo sapiens) (UniProt P54753); experiment: Inhibition of EPHB3 at 10 uM
[38] = target: Serine/threonine-protein kinase pim-1 (Homo sapiens) (UniProt P11309); experiment: Inhibition of PIM1 at 10 uM
[39] = target: Tyrosine-protein kinase CSK (Homo sapiens) (UniProt P41240); experiment: Inhibition of CSK at 10 uM
[40] = target: Fibroblast growth factor receptor 2 (Homo sapiens) (UniProt P21802); experiment: Inhibition of FGFR2 at 10 uM
[41] = target: Ribosomal protein S6 kinase alpha-3 (Homo sapiens) (UniProt P51812); experiment: Inhibition of RSK2 at 10 uM
[42] = target: Ephrin type-A receptor 3 (Homo sapiens) (UniProt P29320); experiment: Inhibition of EPHA3 at 10 uM
[43] = target: Serine/threonine-protein kinase haspin (Homo sapiens) (UniProt Q8TF76); experiment: Inhibition of GSG2 at 10 uM
[44] = target: Inhibitor of nuclear factor kappa-B kinase subunit alpha (Homo sapiens) (UniProt O15111); experiment: Inhibition of IKKalpha at 10 uM
[45] = target: Protein kinase C epsilon type (Homo sapiens) (UniProt Q02156); experiment: Inhibition of PKCepsilon at 10 uM
[46] = target: Homeodomain-interacting protein kinase 4 (Homo sapiens) (UniProt Q8NE63); experiment: Inhibition of HIPK4 at 10 uM

Sequence of Serine/threonine-protein kinase D1 (Homo sapiens) (Q15139 whole entry): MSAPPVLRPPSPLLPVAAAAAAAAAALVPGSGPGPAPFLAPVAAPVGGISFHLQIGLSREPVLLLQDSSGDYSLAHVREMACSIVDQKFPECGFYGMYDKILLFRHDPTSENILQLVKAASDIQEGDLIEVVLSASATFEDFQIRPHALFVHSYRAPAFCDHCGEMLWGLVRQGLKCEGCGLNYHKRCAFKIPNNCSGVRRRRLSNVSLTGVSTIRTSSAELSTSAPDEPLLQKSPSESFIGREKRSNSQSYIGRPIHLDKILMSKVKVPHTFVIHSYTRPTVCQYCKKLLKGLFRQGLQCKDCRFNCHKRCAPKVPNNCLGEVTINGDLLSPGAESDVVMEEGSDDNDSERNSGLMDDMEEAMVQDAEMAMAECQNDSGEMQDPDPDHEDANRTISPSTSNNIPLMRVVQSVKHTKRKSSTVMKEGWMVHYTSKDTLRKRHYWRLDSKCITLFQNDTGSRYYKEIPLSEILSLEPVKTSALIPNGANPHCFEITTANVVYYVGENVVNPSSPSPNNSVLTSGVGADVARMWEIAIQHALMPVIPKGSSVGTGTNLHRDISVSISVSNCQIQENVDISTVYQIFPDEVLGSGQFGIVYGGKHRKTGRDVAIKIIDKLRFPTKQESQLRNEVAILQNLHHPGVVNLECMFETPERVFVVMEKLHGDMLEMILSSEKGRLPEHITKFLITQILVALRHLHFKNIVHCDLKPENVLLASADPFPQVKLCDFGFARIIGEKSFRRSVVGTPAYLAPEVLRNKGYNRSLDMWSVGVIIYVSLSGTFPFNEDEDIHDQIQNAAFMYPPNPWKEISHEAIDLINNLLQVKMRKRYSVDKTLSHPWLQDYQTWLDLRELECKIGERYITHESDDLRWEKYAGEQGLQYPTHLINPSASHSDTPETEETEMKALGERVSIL
Sequence of Tyrosine-protein kinase ITK/TSK (Homo sapiens) (Q08881 whole entry): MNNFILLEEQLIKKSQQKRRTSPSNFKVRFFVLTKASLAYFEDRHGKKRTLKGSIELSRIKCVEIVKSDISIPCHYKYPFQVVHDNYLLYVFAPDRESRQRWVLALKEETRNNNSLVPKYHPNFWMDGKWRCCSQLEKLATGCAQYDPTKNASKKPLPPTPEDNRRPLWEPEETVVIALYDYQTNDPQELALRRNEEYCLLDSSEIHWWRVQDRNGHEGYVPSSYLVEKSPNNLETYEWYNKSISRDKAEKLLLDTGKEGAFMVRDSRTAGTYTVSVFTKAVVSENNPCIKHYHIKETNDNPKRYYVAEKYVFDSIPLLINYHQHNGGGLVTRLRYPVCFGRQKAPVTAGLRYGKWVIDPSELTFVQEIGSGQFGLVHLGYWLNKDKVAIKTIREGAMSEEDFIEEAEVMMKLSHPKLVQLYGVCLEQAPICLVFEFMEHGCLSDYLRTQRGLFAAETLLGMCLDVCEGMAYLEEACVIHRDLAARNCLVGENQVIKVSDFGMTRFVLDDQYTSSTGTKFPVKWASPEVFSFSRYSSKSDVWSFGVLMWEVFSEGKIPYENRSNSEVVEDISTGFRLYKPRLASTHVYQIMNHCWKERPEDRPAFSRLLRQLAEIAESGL
Sequence of Ephrin type-A receptor 3 (Homo sapiens) (P29320 whole entry): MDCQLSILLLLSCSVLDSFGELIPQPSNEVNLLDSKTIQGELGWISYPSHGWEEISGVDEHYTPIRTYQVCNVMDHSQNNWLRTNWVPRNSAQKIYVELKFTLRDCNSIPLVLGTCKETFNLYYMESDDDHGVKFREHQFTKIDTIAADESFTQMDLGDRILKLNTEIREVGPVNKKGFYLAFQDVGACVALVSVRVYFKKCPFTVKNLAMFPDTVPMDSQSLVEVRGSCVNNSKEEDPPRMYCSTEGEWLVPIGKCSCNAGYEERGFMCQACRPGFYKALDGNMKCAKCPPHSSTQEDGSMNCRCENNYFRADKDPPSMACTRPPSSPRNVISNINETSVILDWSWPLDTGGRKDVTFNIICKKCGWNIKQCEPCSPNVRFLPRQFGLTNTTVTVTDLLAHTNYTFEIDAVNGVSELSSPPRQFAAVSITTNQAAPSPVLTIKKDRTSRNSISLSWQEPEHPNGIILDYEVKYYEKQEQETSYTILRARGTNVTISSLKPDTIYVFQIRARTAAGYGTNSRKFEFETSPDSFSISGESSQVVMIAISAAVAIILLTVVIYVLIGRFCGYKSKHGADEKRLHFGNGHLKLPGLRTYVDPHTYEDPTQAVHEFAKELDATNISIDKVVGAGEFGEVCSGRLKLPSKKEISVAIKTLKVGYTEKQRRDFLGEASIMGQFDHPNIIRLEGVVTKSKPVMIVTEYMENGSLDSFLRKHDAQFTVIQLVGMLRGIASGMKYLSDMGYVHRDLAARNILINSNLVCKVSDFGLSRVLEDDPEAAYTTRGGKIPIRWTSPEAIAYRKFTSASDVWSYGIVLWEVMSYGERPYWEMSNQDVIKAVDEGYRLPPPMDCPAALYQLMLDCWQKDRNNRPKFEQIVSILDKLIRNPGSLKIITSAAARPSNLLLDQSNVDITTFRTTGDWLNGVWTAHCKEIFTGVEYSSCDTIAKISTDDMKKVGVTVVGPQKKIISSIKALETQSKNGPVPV
Sequence of Fibroblast growth factor receptor 2 (Homo sapiens) (P21802 22-821 limits assumed): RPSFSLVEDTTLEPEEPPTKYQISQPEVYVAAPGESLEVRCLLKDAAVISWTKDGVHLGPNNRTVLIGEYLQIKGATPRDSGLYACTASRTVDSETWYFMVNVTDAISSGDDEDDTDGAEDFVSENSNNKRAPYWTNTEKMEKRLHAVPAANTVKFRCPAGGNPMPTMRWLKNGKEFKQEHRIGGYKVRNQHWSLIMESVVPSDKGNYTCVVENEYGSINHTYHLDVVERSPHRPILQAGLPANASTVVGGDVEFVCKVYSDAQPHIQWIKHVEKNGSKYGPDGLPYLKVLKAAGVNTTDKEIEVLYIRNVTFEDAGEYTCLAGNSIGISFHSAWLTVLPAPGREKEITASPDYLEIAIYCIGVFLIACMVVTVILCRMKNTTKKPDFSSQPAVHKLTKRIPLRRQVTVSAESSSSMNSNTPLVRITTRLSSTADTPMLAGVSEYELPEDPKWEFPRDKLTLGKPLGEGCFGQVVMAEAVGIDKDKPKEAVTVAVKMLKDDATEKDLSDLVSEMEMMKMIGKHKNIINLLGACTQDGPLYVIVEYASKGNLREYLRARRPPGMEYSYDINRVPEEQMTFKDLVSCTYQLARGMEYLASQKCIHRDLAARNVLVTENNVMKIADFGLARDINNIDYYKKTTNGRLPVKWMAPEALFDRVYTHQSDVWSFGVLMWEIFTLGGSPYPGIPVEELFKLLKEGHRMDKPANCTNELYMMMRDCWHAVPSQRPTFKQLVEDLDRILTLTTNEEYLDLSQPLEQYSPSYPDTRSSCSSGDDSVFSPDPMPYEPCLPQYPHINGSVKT
Sequence of Tyrosine-protein kinase CSK (Homo sapiens) (P41240 2-450 limits assumed): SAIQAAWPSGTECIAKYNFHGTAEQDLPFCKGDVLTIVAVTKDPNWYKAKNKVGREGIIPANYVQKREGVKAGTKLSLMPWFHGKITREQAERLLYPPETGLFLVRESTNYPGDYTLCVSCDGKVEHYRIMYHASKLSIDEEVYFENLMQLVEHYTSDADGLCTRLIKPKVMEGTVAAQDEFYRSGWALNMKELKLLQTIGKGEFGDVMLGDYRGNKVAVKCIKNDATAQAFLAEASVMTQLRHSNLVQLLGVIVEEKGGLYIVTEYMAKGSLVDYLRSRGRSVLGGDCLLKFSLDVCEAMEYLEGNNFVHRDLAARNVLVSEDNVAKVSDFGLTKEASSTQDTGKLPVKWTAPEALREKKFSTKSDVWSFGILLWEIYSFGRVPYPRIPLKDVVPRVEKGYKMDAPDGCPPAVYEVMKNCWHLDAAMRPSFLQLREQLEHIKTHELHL
Sequence of Myosin light chain kinase 2, skeletal/cardiac muscle (Homo sapiens) (Q9H1R3 whole entry): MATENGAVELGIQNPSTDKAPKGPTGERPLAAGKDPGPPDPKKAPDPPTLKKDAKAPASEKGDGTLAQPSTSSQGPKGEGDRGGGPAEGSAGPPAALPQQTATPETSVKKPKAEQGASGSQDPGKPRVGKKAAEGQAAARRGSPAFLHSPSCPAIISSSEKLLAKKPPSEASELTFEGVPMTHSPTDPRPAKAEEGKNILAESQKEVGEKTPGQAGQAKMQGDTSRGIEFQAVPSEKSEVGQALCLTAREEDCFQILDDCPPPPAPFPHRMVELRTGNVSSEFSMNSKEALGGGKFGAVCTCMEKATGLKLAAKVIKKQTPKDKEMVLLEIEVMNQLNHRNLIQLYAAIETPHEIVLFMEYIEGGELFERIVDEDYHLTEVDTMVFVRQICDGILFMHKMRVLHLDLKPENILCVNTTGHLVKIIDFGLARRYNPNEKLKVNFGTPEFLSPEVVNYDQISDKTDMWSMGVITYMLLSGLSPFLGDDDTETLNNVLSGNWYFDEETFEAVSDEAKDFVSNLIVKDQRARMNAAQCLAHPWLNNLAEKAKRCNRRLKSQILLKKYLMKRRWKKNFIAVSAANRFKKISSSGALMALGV
Sequence of Aurora kinase B (Homo sapiens) (Q96GD4 whole entry): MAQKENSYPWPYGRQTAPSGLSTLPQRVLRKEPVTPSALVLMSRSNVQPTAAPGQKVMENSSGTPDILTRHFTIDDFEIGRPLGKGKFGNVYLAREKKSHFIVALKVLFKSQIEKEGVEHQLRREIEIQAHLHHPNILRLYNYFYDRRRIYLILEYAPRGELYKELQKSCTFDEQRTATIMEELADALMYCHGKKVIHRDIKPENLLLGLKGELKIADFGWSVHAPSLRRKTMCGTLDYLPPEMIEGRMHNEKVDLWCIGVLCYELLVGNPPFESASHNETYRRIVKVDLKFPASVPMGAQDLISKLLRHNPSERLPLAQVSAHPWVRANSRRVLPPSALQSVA
Sequence of Serine/threonine-protein kinase pim-1 (Homo sapiens) (P11309 whole entry, looked up): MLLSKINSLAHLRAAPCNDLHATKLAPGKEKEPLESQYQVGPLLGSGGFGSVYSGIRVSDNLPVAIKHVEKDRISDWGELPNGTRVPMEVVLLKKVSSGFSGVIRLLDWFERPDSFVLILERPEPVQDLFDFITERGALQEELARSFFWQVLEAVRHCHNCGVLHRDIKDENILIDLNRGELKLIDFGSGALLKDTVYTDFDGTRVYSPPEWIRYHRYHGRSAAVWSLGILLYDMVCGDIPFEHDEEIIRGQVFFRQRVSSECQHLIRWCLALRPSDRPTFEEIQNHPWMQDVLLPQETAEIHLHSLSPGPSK

inhibition [1]: < 50%
inhibition [2]: < 50%
inhibition [3]: < 50%
inhibition [4]: < 50%
inhibition [5]: < 50%
inhibition [6]: < 50%
inhibition [7]: < 50%
inhibition [8]: < 50%
inhibition [9]: < 50%
inhibition [10]: < 50%
inhibition [11]: < 50%
inhibition [12]: < 50%
inhibition [13]: < 50%
inhibition [15]: < 50%
inhibition [16]: < 50%
inhibition [17]: < 50%
inhibition [18]: < 50%
inhibition [19]: < 50%
inhibition [20]: < 50%
inhibition [21]: < 50%
inhibition [22]: < 50%
inhibition [23]: < 50%
inhibition [24]: < 50%
inhibition [25]: < 50%
inhibition [26]: < 50%
inhibition [27]: < 50%
inhibition [28]: < 50%
inhibition [29]: < 50%
inhibition [30]: < 50%
inhibition [31]: < 50%
inhibition [32]: < 50%
inhibition [33]: < 50%
inhibition [34]: < 50%
inhibition [35]: < 50%
inhibition [36]: < 50%
inhibition [37]: < 50%
inhibition [38]: < 50%
inhibition [39]: < 50%
inhibition [40]: < 50%
inhibition [41]: < 50%
inhibition [42]: < 50%
inhibition [43]: < 50%
inhibition [44]: < 50%
inhibition [45]: < 50%
inhibition [46]: < 50%
Compound: Cc1cc(OCc2ccc(F)cc2F)c(Br)c(=O)n1Cc1ccc(CN(C)C)cc1
inhibition [14]: < 50%
